Measurements from the COVID Moonshot data (paper PMC7615835).
“And” between values parts separate entries of the source, which are not always exact repeats. Equal entries are not always repeated.

Biological target: SARS-CoV-2 Main Protease (SARS-CoV-2) (UniProt P0DTD1)

SMILES	IC50
O=C(CN(C(=O)Cc1cccnc1)c1ccc(-c2ncccn2)cc1)N1CCNCC1	> 99.5 µM
Cc1cc(C(F)(F)F)nc2n[nH]c(NC(=O)Cc3cccc(Cl)c3)c12	> 99.5 µM
CC(C)(C)NC(=O)CN1CC(C(=O)Nc2cncc3cc(S(C)(=O)=O)ccc23)c2cc(Cl)ccc2C1=O (centres undefined)	0.248 µM
O=C(NCCc1cccc(F)c1)C(c1cccnc1)N(C(=O)c1cnc[nH]1)c1ccc(OC(F)F)cc1 (centres undefined)	22.1 µM
CN1CCN(c2cc(Cl)cc(CC(=O)Nc3cncc4ccccc34)c2)[C@H](c2ccccc2)C1 (stereo in doubt)	1.81 µM
O=C(Nc1cncc2ccccc12)C1CCNc2cc(Cl)c(Cl)cc21 (centres undefined)	0.154 µM
COc1ccccc1OC1CN(C(=O)c2cc(=O)[nH]c3ccccc23)C1	> 99.5 µM
O=C(NNc1cc(O)nc2ncccc12)c1ccc2[nH]ccc2c1	> 99.5 µM
O=C(Cc1cc(Cl)cc(Nc2cc(C(F)(F)F)ccn2)c1)Nc1cncc2ccccc12	1.84 µM
O=C(NCC1(C(=O)Nc2cncc3ccccc23)CCOc2ccc(Cl)cc21)C1COCCN1CC(F)(F)F (centres undefined)	17.1 µM and 27.2 µM
O=C(CCl)N1CCN(Cc2cc(O)cc(Cl)c2)CC1	12.9 µM
Cc1ccc(S(=O)(=O)NCCNC(=O)N2CCN(S(=O)(=O)N3CCCC3)CC2)cc1	> 99.5 µM
O=C(OCC(=O)N1CCC(Cc2ccccc2)CC1)c1cc(=O)[nH]c(=O)[nH]1	> 99.5 µM
CNC(=O)Nc1ccc(N(C(=O)c2cocn2)C(C(=O)NCCc2cccc(F)c2)c2cccnc2)cc1 (centres undefined)	> 99.5 µM
CC(C)(C)c1ccc(N(C(=O)c2nc3cnccc3s2)C(C(=O)NCCc2cccc(F)c2)c2cccnc2)cc1 (centres undefined)	> 99.5 µM
CC(NC(=O)Nc1ccn2ccnc2c1)c1ccc2[nH]c(=O)oc2c1 (centres undefined)	> 99.5 µM
CN(Cc1ccccc1Nc1cc(Cl)cc(CC(=O)Nc2cncc3ccccc23)c1)C1CCCCC1	2.22 µM
Cc1ccncc1NC(=O)N(CCC1CCCCC1)c1cc(Cl)cc(OC(C)C)c1	24.6 µM
Cc1nocc1C(=O)N1Cc2ccc(Cl)cc2C(C(=O)Nc2cncc3ccccc23)C1 (centres undefined)	0.168 µM
CCOc1ccc(N(C(=O)c2cocn2)C(C(=O)NCCc2cccc(F)c2)c2cccnc2)cn1 (centres undefined)	> 99.5 µM
O=C(NCCc1cccc(F)c1)C(c1cccnc1)N(C(=O)c1cnc[nH]1)c1ccc2c(c1)CCC(=O)N2CC(F)F (centres undefined)	47.8 µM
O=C(Cc1cc(Cl)cc(Nc2cc(C(F)(F)F)ccc2Cl)c1)Nc1cncc2ccccc12	1.61 µM
Cc1cccn2ncc(NC(=O)C3CNC(=O)c4ccc(Cl)cc43)c12 (centres undefined)	2.4 µM

SMILES	IC50
COc1ccccc1N1CCN(C(=O)c2cc(=O)[nH]c3ccccc23)CC1	32.8 µM
CNC(=O)Nc1ccc(N(Cc2ccsc2)C(=O)Cn2nnc3ccccc32)cc1	1.42 µM
C#CCCCC(=O)N[C@H](C(=O)N[C@H](CC(C)C)C(=O)NN(CCC(N)=O)C(=O)C1OC1C(=O)OCC)C(C)(C)C (stereo in doubt)	0.292 µM and 0.206 µM
O=C(NCCc1cccc(F)c1)C(c1cccnc1)N(C(=O)c1cocn1)C1CCc2cc(F)ccc21 (centres undefined)	> 99.5 µM
N#CC1(CS(=O)(=O)N2Cc3ccc(Cl)cc3C3(CCN(c4cncc5ccc(F)cc45)C3=O)C2)CC1 (centres undefined)	0.828 µM
O=C(Cc1cc(Cl)cc(NC23CC4CC(CC(O)(C4)C2)C3)c1)Nc1cncc2ccccc12	2.87 µM
O=C(Nc1cncc2ccccc12)C(NC[C@@H]1CC[C@H](C(=O)N2CCCC2)O1)c1cccc(Cl)c1 (stereo in doubt)	2.77 µM
O=C(Cc1cccc(C(F)(F)F)c1)Nc1cncc2ccccc12	6.94 µM
Cc1cccc(C)c1N(C(=O)CN1CCNCC1)c1cc(Cl)cc(CC(=O)Nc2cncc3ccccc23)c1	2.74 µM
Cn1cnc2cc(N(C(=O)c3cnc[nH]3)C(C(=O)NCCc3cccc(F)c3)c3cccnc3)ccc21 (centres undefined)	> 99 µM
CC(C)(C)c1ccc(N(C(=O)c2ccco2)C(C(=O)Nc2ccccc2)c2cccnc2)cc1 (centres undefined)	11.2 µM
COc1ccc(NC(=O)C(c2cccnc2)N(C(=O)c2cocn2)c2ccc(C(C)(C)C)cc2)cn1 (centres undefined)	5.37 µM
O=C(CCl)N1CCN(Cc2cnc(Cc3ccccc3)s2)CC1	29.8 µM
O=C(Cc1cc(Cl)cc(Nc2cccc(-c3ccccc3)c2)c1)Nc1cncc2ccccc12	5.85 µM
O=C(Cc1cc(Cl)cc(N2CCCCC2)c1)Nc1cncc2ccccc12	> 9.95 µM
COc1ccccc1OCCNC(=O)c1cc(=O)ccn1C	> 99.5 µM
O=C(Cc1cc(Cl)cc(Nc2ccc(I)cc2F)c1)Nc1cncc2ccccc12	2.24 µM
O=C(Cc1cccc(Cl)c1)Nc1n[nH]c2ccc(F)cc12	> 99.5 µM
COc1ncc(Br)cc1Nc1cc(Cl)cc(CC(=O)Nc2cncc3ccccc23)c1	0.681 µM
O=C1CC(N2CC(C(=O)Nc3cncc4ccccc34)c3cc(Cl)ccc3C2=O)CN1 (centres undefined)	0.681 µM
O=C(c1ccnn1C1CC1)N1Cc2ccc(Cl)cc2C2(CCN(c3cncc4ccccc34)C2=O)C1 (centres undefined)	0.163 µM
Cc1ccncc1NC(=O)Cc1ccccc1N	> 99.5 µM
O=C(CCl)N1CCN(S(=O)(=O)c2ccsc2)[C@H](C(=O)N2CCN(c3ccccc3)CC2)C1 (stereo in doubt)	1.98 µM

SMILES	IC50
CC(C)(C)c1ccc(N(C(=O)c2sc(N3CCOCC3)nc2Cl)C(C(=O)NCCc2cccc(F)c2)c2cccnc2)cc1 (centres undefined)	> 99.5 µM
CNc1ccc(N(C(=O)Cn2nnc3ccccc32)c2cccc(Cl)c2)cc1	5.34 µM
CC1(C(=O)Nc2cncc3cc(S(C)(=O)=O)ccc23)CN(CC2CC2)S(=O)(=O)c2ccc(Cl)cc21 (centres undefined)	0.615 µM
Cc1ccc(Nc2cc(Cl)cc(CC(=O)Nc3cncc4ccccc34)c2)cc1I	2.07 µM
CC(C)(O)c1ccc(N(C(=O)c2cocn2)C(C(=O)NCCc2cccc(F)c2)c2cccnc2)cc1 (centres undefined)	26.5 µM
CS(=O)(=O)c1ccc2c(NC(=O)C3CN(CC(=O)NCC(F)(F)F)C(=O)c4ccc(Cl)cc43)cncc2c1 (centres undefined)	0.287 µM
O=C1N(c2cncc3ccccc23)CCC12CN(Cc1nncs1)Cc1ccc(Cl)cc12 (centres undefined)	0.263 µM
Cc1ccc(N(Cc2cscn2)C(=O)Cc2cncc3ccccc23)nc1	> 99.5 µM
CC(C)(C)OC(=O)NCCCNC(=O)C(c1cccnc1)N(C(=O)c1cocn1)c1ccc(C(C)(C)C)cc1 (centres undefined)	3.39 µM
Cc1cn(-c2cc(Nc3cc(Cl)cc(CC(=O)Nc4cncc5ccccc45)c3)cc(C(F)(F)F)c2)cn1	2.53 µM
O=C(CCl)N1CCN(Cc2ccsc2)CC1	3.27 µM and 3.74 µM
N#CCC1(CS(=O)(=O)N2Cc3ccc(Cl)cc3C3(CCN(c4cncc5ccccc45)C3=O)C2)CC1 (centres undefined)	0.337 µM
O=C(Cc1cccc(Cl)c1)Nc1cncc2ccc(OCC(F)(F)F)cc12	1.09 µM
Cn1cc(C(C(=O)NCCc2cccc(F)c2)N(C(=O)c2cocn2)c2ccc(C(C)(C)C)cc2)ccc1=O (centres undefined)	> 99.5 µM
O=C(Cc1cc(Cl)cc(N2CCN(c3nsc4ccccc34)CC2)c1)Nc1cncc2ccccc12	3.34 µM
C=CC(=O)NCc1ccccc1S(=O)(=O)NC	> 99.5 µM
Cc1ccncc1NC(=O)C(C)c1cc(Cl)cc(OC2CC(=O)N2)c1 (centres undefined)	77.1 µM
CC(C)OCc1cc(C(=O)N2CCC(C3CCNC3)CC2)ccc1F (centres undefined)	> 99.5 µM
O=C(Nc1cncc2ccccc12)C1CCOc2c(OCc3ccccc3)cc(Cl)cc21 (centres undefined)	36.5 µM
N#Cc1cc(F)c(Nc2cc(Cl)cc(CC(=O)Nc3cncc4ccccc34)c2)cc1F	2.12 µM
CC(C)C[C@H]1CN(C(=O)CCl)CCN1Cc1cccc(Cl)c1 (stereo in doubt)	0.759 µM and 0.641 µM
COc1ccc2c(NC(=O)C3CCOc4ccc(Cl)cc43)noc2c1 (centres undefined)	61.5 µM
COc1ccc(Cl)cc1OCCNC(=O)c1cc(=O)[nH]c2ccccc12	> 99.5 µM
